Drawing on patent US6747148B2, “Sulfonamide derivatives as inhibitors of bone resorption and as inhibitors of cell adhesion” (Hoechst Marion Roussel Deutschland GmbH, priority 1998, dated 2004), this text covers IC50 for 23 compounds.

T1 sequence (P06756 31-889 limits assumed): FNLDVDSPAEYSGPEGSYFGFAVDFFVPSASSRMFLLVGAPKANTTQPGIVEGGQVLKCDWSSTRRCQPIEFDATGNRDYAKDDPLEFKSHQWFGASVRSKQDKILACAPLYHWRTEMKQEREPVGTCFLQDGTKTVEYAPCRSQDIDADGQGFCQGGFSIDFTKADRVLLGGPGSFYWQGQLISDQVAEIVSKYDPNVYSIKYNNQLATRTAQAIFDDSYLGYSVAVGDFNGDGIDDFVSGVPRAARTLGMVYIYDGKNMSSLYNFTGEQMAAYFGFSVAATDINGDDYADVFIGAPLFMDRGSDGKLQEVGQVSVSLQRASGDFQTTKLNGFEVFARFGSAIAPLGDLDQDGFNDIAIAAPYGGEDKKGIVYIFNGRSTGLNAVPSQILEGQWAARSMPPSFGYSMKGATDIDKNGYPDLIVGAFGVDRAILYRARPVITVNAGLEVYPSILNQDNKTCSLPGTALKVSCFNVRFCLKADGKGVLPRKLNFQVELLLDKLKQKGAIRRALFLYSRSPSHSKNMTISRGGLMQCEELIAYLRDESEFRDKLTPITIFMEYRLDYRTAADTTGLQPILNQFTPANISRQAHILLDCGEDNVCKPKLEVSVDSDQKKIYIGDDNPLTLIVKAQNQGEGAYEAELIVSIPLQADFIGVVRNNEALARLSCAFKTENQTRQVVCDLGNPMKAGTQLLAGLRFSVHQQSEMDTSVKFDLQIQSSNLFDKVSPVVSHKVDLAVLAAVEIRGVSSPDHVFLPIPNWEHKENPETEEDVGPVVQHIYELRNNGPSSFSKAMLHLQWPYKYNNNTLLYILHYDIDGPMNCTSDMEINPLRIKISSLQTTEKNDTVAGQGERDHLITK
T1 sequence (P06756 891-1048 partner limits assumed): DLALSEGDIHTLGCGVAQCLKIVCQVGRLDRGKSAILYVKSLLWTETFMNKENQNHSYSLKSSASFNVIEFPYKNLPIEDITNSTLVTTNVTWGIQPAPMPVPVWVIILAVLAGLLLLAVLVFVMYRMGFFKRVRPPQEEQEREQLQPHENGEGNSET
T1 sequence (P05106 27-788): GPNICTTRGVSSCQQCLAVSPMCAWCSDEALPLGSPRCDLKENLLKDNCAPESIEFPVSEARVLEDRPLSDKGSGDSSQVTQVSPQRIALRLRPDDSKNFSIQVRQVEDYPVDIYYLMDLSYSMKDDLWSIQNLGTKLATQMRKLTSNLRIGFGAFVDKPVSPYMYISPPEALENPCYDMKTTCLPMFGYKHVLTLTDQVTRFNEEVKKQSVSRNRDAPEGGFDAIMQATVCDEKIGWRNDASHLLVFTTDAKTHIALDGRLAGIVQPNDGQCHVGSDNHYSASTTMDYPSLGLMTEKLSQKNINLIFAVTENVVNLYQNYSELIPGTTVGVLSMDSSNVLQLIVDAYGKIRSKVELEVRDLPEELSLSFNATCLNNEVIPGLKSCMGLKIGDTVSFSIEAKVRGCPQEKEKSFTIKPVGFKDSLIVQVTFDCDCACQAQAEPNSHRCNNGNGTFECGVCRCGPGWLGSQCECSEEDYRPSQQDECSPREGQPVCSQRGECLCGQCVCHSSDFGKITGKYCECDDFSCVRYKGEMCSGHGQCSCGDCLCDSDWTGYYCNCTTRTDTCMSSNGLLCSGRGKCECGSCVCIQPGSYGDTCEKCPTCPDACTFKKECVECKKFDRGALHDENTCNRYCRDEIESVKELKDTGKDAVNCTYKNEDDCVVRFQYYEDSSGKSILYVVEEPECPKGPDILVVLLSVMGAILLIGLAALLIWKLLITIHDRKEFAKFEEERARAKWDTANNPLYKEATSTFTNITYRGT

This test has as its target T1, vitronectin receptor αvβ3 (Homo sapiens, UniProt P05106+P06756).
T1 construct: expressed in transfected cells
In words: Inhibition of binding of 293 cells to human vitronectin (Vn/293 cell test). The class given is cell-based. The following applies: 293 cells cotransfected with αv and β3 subunits; plate coated with human vitronectin; 90 minutes at 37° C. An excerpt:
Test for the Measurement of the Inhibition of Binding of 293 Cells to Human Vitronectin (Vn/293 Cell Test)
1. Purification of Human Vitronectin
Human vitronectin is isolated from human plasma and purified by affinity chromatography according to the method of Yatohyo et al., Cell Structure and Function […]: 281-292 (1988).
293 cells, a human embryonic kidney cell line, which are cotransfected with DNA sequences for the αv and β3 subunits of the vitronectin receptor αvβ3, are selected for a high rate of expression (>500,000 αvβ3 receptors/cell) according to the FACS method. The selected cells are cultured and sorted again by means of FACS in order to obtain a stable cell line (15 D) with expression rates >1,000,000 copies of αvβ3 per cell.
A Linbro 96-well tissue culture plate with a flat bottom is coated overnight at 4° C. with human vitronectin (0.01 mg/ml, 0.05 ml/well) in phosphate-buffered saline solution (PBS) and then blocked with 0.5% strength BSA (bovine serum albumin). Solutions of the test substances from 10^−10 mol/l to 2×10^−3 mol/l in glucose-containing DMEM medium are prepared and 0.05 ml/well of the solution are added to the plate in each case. The cells which express high levels of αvβ3 (for example 15 D) are suspended in glucose-containing DMEM medium and the suspension is adjusted to a content of 25,000 cells/0.05 ml of medium. 0.05 ml of this cell suspension is added to each well and the plate is incubated at 37° C. for 90 minutes. The plate is washed three times with warm PBS in order to remove unbound cells. The bound cells are lyzed in citrate buffer (25 mM, pH 5.0) which contains 0.25% Triton X-100. The hexoseamidase substrate p-nitrophenyl-N-acetyl-β-D-glucosaminide is then added and the plate is incubated at 37° C. for 90 minutes. The reaction is stopped with a glycine (50 mM)/EDTA (5 mM) buffer (ph 10.4), and the absorption of each well is measured at 405-650 nm. The data are analyzed according to standard processes.
`O=C(CCc1ccc(C(=O)NC[C@H](NS(=O)(=O)c2cccc3ccccc23)C(=O)O)cc1)NC1=NCCCN1` [Example 1, (2S)-2-(Naphthalene-1-sulfonylamino)-3-(4-(2-(1,4,5,6-tetrahydropyrimidin-2-ylcarbamoyl)-ethyl)-benzoylamino)-propionic acid] yielded an IC50 of 0.006 µM.

In the case of `O=C(CCc1ccc(C(=O)NC[C@H](NS(=O)(=O)c2cccc3cccnc23)C(=O)O)cc1)NC1=NCCCN1` [Example 2, (2S)-2-(Quinoline-8-sulfonylamino)-3-(4-(2-(1,4,5,6-tetrahydropyrimidin-2-ylcarbamoyl)-ethyl)-benzoylamino)-propionic acid], the IC50 turned out to be 0.052 µM.

On to `CC(=O)Nc1ccc(S(=O)(=O)N[C@@H](CNC(=O)c2ccc(CCC(=O)NC3=NCCCN3)cc2)C(=O)O)cc1` [Example 3, (2S)-2-(4-Acetylamino-benzenesulfonylamino)-3-(4-(2-(1,4,5,6-tetrahydropyrimidin-2-ylcarbamoyl)-ethyl)-benzoylamino)-propionic acid], for which the IC50 came out at 0.027 µM.

The compound `CC(C)(C)c1ccc(S(=O)(=O)N[C@@H](CNC(=O)c2ccc(CCC(=O)NC3=NCCCN3)cc2)C(=O)O)cc1` [Example 5, (2S)-2-(4-tert-Butyl-benzenesulfonylamino)-3-(4-(2-(1,4,5,6-tetrahydropyrimidin-2-ylcarbamoyl)-ethyl)-benzoylamino)-propionic acid] displayed an IC50 of 0.018 µM.

As to `CCCS(=O)(=O)N[C@@H](CNC(=O)c1ccc(CCC(=O)NC2=NCCCN2)cc1)C(=O)O` [Example 6, (2S)-2-(Propane-1-sulfonylamino)-3-(4-(2-(1,4,5,6-tetrahydropyrimidin-2-ylcarbamoyl)-ethyl)-benzoylamino)-propionic acid], the IC50 was determined as 0.032 µM.

Turning to `O=C(CCc1ccc(C(=O)NC[C@H](NS(=O)(=O)/C=C/c2ccccc2)C(=O)O)cc1)NC1=NCCCN1` [Example 7, (2S)-2-(2-Phenyl-ethenesulfonylamino)-3-(4-(2-(1,4,5,6-tetrahydropyrimidin-2-ylcarbamoyl)-ethyl)-benzoylamino)-propionic acid], the IC50 was determined as 0.028 µM.

`CCCc1ccc(S(=O)(=O)N[C@@H](CNC(=O)c2ccc(CCC(=O)NC3=NCCCN3)cc2)C(=O)O)cc1` [Example 8, (2S)-2-(4-Propyl-benzenesulfonylamino)-3-(4-(2-(1,4,5,6-tetrahydropyrimidin-2-ylcarbamoyl)-ethyl)-benzoylamino)-propionic acid] had an IC50 of 0.02 µM.

Turning to `CC(C)CS(=O)(=O)N[C@@H](CNC(=O)c1ccc(CCC(=O)NC2=NCCCN2)cc1)C(=O)O` [Example 9, (2S)-2-(2-Methyl-propane-1-sulfonylamino)-3-(4-(2-(1,4,5,6-tetrahydropyrimidin-2-ylcarbamoyl)-ethyl)-benzoylamino)-propionic acid], the half-inhibitory concentration (IC50) came to 0.069 µM.

For the compound `CCCCOc1ccc(S(=O)(=O)N[C@@H](CNC(=O)c2ccc(CCC(=O)NC3=NCCCN3)cc2)C(=O)O)cc1` [Example 10, (2S)-2-(4-Butoxy-benzenesulfonylamino)-3-(4-(2-(1,4,5,6-tetrahydropyrimidin-2-ylcarbamoyl)-ethyl)-benzoylamino)-propionic acid], the IC50 amounted to 0.029 µM.

Turning to `N#Cc1ccccc1S(=O)(=O)N[C@@H](CNC(=O)c1ccc(CCC(=O)NC2=NCCCN2)cc1)C(=O)O` [Example 11, (2S)-2-(2-Cyano-benzenesulfonylamino)-3-(4-(2-(1,4,5,6-tetrahydropyrimidin-2-ylcarbamoyl)-ethyl)-benzoylamino)-propionic acid], the IC50 is 0.024 µM.

Turning to `CC1(C)C2CCC1(CS(=O)(=O)N[C@@H](CNC(=O)c1ccc(CCC(=O)NC3=NCCCN3)cc1)C(=O)O)C(=O)C2` (stereo partly drawn) [Example 12, (2S)-2-(7,7-Dimethyl-2-oxo-bicyclo[2.2.1]hept-1-ylmethanesulfonylamino)-3-(4-(2-(1,4,5,6-tetrahydropyrimidin-2-ylcarbamoyl)-ethyl)-benzoylamino)-propionic acid], the IC50 worked out at 0.027 µM.

`O=C(CCc1ccc(C(=O)NC[C@H](NS(=O)(=O)c2ccc(Cl)cc2)C(=O)O)cc1)NC1=NCCCN1` [Example 13, (2S)-^2-(4-Chloro-benzenesulfonylamino)-3-(4-(2-(1,4,5,6-tetrahydropyrimidin-2-ylcarbamoyl)-ethyl)-benzoylamino)-propionic acid] gave an IC50 of 0.027 µM.

Compound `O=C(CCc1ccc(C(=O)NC[C@H](NS(=O)(=O)c2cccc(Cl)c2)C(=O)O)cc1)NC1=NCCCN1` [Example 14, (2S)-2-(3-Chloro-benzenesulfonylamino)-3-(4-(2-(1,4,5,6-tetrahydropyrimidin-2-ylcarbamoyl)-ethyl)-benzoylamino)-propionic acid] gave an IC50 of 0.01 µM.

For `O=C(CCc1ccc(C(=O)NC[C@H](NS(=O)(=O)c2cccc(C(F)(F)F)c2)C(=O)O)cc1)NC1=NCCCN1` [Example 15, (2S)-3-(4-(2-(1,4,5,6-Tetrahydropyrimidin-2-ylcarbamoyl)-ethyl)-benzoylamino)-2-(3-trifluoromethyl-benzenesulfonylamino)-propionic acid], the 50% inhibitory concentration (IC50) was determined as 0.006 µM.

`COc1ccc(S(=O)(=O)N[C@@H](CNC(=O)c2ccc(CCC(=O)NC3=NCCCN3)cc2)C(=O)O)cc1` [Example 16, (2S)-2-(4-Methoxy-benzenesulfonylamino)-3-(4-(2-(1,4,5,6-tetrahydropyrimidin-2-ylcarbamoyl)-ethyl)-benzoylamino)-propionic acid]: the IC50 was determined as 0.026 µM.

As to `O=C(CCc1ccc(C(=O)NC[C@H](NS(=O)(=O)c2ccccc2)C(=O)O)cc1)NC1=NCCCN1` [Example 17, (2S)-2-Benzenesulfonylamino-3-(4-(2-(1,4,5,6-tetrahydropyrimidin-2-ylcarbamoyl)-ethyl)-benzoylamino)-propionic acid], the IC50 turned out to be 0.009 µM.

On to `O=C(CCc1ccc(C(=O)NC[C@H](NS(=O)(=O)c2cccs2)C(=O)O)cc1)NC1=NCCCN1` [Example 18, (2S)-3-(4-(2-(1,4,5,6-Tetrahydropyrimidin-2-ylcarbamoyl)-ethyl)-benzoylamino)-2-(thiophene-2-sulfonylamino)-propionic acid], for which the IC50 was determined as 0.014 µM.

Compound `O=C(CCc1ccc(C(=O)NC[C@H](NS(=O)(=O)c2ccc(-c3ccccc3)cc2)C(=O)O)cc1)NC1=NCCCN1` [Example 19, (2S)-2-(Biphenyl-4-sulfonylamino)-3-(4-(2-(1,4,5,6-tetrahydropyrimidin-2-ylcarbamoyl)-ethyl)-benzoylamino)-propionic acid] displayed an IC50 of 0.038 µM.

`O=C(CCc1ccc(C(=O)NC[C@H](NS(=O)(=O)c2ccc3ccccc3c2)C(=O)O)cc1)NC1=NCCCN1` [Example 20, (2S)-2-(Naphthalene-2-sulfonylamino)-3-(4-(2-(1,4,5,6-tetrahydropyrimidin-2-ylcarbamoyl)-ethyl)-benzoylamino)-propionic acid] gave an IC50 of 0.005 µM.

In turn, `Cc1cc(C)c(S(=O)(=O)N[C@@H](CNC(=O)c2ccc(CCC(=O)NC3=NCCCN3)cc2)C(=O)O)c(C)c1` [Example 21, (2S)-3-(4-(2-(1,4,5,6-Tetrahydropyrimidin-2-ylcarbamoyl)-ethyl)-benzoylamino)-2-(2,4,6-trimethyl-benzenesulfonylamino)-propionic acid] displayed an IC50 of 0.021 µM.

`O=C(CCc1ccc(C(=O)NC[C@H](NS(=O)(=O)c2ccc(C(F)(F)F)cc2)C(=O)O)cc1)NC1=NCCCN1` [Example 22, (2S)-3-(4-(2-(1,4,5,6-Tetrahydropyrimidin-2-ylcarbamoyl)-ethyl)-benzoylamino)-2-(4-trifluoromethyl-benzenesulfonylamino)-propionic acid]: the IC50 was found to be 0.01 µM.

Compound `CCCCS(=O)(=O)N[C@@H](CNC(=O)c1ccc(CCC(=O)NC2=NCCCN2)cc1)C(=O)O` [Example 23, (2S)-2-(Butane-1-sulfonylamino)-3-(4-(2-(1,4,5,6-tetrahydropyrimidin-2-ylcarbamoyl)-ethyl)-benzoylamino)-propionic acid] registered an IC50 of 0.03 µM.

`CS(=O)(=O)N[C@@H](CNC(=O)c1ccc(CCC(=O)NC2=NCCCN2)cc1)C(=O)O` [Example 24, (2S)-2-Methanesulfonylamino-3-(4-(2-(1,4,5,6-tetrahydropyrimidin-2-ylcarbamoyl)-ethyl)-benzoylamino)-propionic acid] came in with an IC50 of 0.1 µM.
